According to patent US6375961B1, “Cosmetic skin care compositions containing cumic alcohol” (Unilever Home & Personal Care (USA), division of Conopoco, …, priority 1999, dated 2002):

Legend:
Format in all cases: cell-based
human keratinocytes [1] = experiment: Glucose uptake assay (3H 2-deoxy-glucose) in keratinocytes
Experimental: Normal human keratinocytes, isolated from neonatal foreskin by trypsin treatment, were grown in Dulbecco's Modified Eagles Medium (DMEM, Life Technologies. Grand Island, New York) with 10% fetal bovine serum in the 10 presence of irradiated mouse fibroblasts for establishing dividing keratinocyte colonies. Cells were incubated until their second passage and stored at −70 ° C. for future use. All incubations took place at 37 ° C. with 5% CO2. Frozen second passage keratinocytes were thawed and plated in T−175 flasks (Corning. Corning, N.Y.) with DMEM and grown for five days. After reaching 80% confluence, they were trypsinized and seeded into 6-well plates containing keratinocyte growth medium (KGM, Clonetics, San Diego, Calif.) with 0.15 mM calcium. Keratinocytes were plated in KGM medium at either 0.5 or 1 million cells/plate in six well plates and incuoated for 4 days. The medium was then aspirated, and the wells were rinsed twice with Phosphate Buffered Saline (PBS), then the plates were incubated (1 mL/well) for 24 hours. The medium was replaced with fresh KBM, 10 ul of corn oil containing cumic alcohol at various concentrations were added and cells were allowed to incubate (for 4 hours at 37C) before 2 μCi of ^3H 2-deoxy-glucose (Amersham, UK) were added to each well. Samples were then incubated for one hour. The medium was aspirated and wells were rinsed three times with PBS before the addition of 500 μL of 0.1N NaOH/well. After 10 minutes of agitation on a shaker, a 25 μL aliquot was removed for protein analysis, and 200 μL were transferred to a scintillation vial containing 5mL Scintillation cocktail (Scintiverse) and counting was performed on a Beckman counter, ^3H-Glucose uptake results were expressed as CPM/μg protein. Concentrations used in the examples below are of cumic alcohol in a corn oil droplet. The in vitro concentration may not be relevant to in vivo concentration because there is partitioning between oil and culture medium and the medium concentration of the active is not The oil droplet concentration of the active. For the cumic alcohol to elicit its effect on the cultured cells, it must diffuse out of the corn oil into the culture medium where it is then accessible to the cells. The cumic alcohol concentration in the culture medium is therefore considerably less than the concentration in the corn oil droplet.

human keratinocytes [2] = experiment: Transglutaminase (TG-1) assay in keratinocytes
Experimental: Normal human keratinocytes, isolated from neonatal foreskin by trypsin treatment, were grown in Dulbecco's Modified Eagles Medium (DMEM, Life Technologies. Grand Island, New York) with 10% fetal bovine serum in the 10 presence of irradiated mouse fibroblasts for establishing dividing keratinocyte colonies. Cells were incubated until their second passage and stored at −70 ° C. for future use. All incubations took place at 37 ° C. with 5% CO2. Frozen second passage keratinocytes were thawed and plated in T−175 flasks (Corning. Corning, N.Y.) with DMEM and grown for five days. After reaching 80% confluence, they were trypsinized and seeded into 6-well plates containing keratinocyte growth medium (KGM, Clonetics, San Diego, Calif.) with 0.15 mM calcium. Keratinocytes were placed in KGM (2 ml per well) at 0.2 million cells/plate in 6-well plates and grown for four or five days until the cells reached approximately 20% confluence. […] One set of triplicate wells was left untreated to serve as control. After three days of incubation, cells were washed thoroughly with phosphate buffered saline (PBS, 10 mM sodium phosphate, 138 mM sodium choride, 2.7 mM potassium chloride, pH 7.4) and placed at −70 °C. for 2 hours. Cells were then thawed for two hours. The DNA content of cells was quantified by using the DNA-binding fluorophore, bis-benzimidazole (Hoechst 33258) and measuring the specific fluoroescence of the DNA-bound fluorophore (360 nm excitation, 450 nm emission). Cellular TG-1 levels were determined by using a transglutaminase-1 (TG-1) specific monoclonal antibody as the primary antibody (BC1, Amersham, UK) and a peroxidase labeled rabbit antimouse IgG as the secondary antibody (Amersham, UK). The plates were blocked at room temperature with 5% nonfat milk in Tris-buffered saline (TBS, 10 mM Tris, 150 mM NaCL, pH 8.0) for one hour followed by two hours incubation with the primary antibody (1:4000 dilution) in 1% milk/TBS at room temperature. After rinsing the plates three times with 1% milk/TDS containing […] Tween 20 (Bio-Rad, Hercules, Calif.), the plates were incubated with a 1:4000 dilution of the secondary antibody at room temperature for two hours. The plates were then rinsed three times with 1% milk/0.05% Tween 20/TBS and three times with PBS. Color was developed by incubation with o-phenylene-diamine (Sigma, St. Louis. Mo.) and hydrogen peroxide (Sigma) dissolved in a 1:1 mixture of 0.2 M dibasic sodium phosphate (Sigma) and 0.1 M citric acid at pH 5.0(Sigma). Solutions were transferred to 4 ml plastic cuvets (Fisher Scientific, Pittsburgh Pa.) and the absorbance was read at 492 nm on an Ultraspec 3000 spectrophotometer (Pharmacia, Piscataway N.J.) and TG-1 levels were expressed as absorbence/DNA fluorescence. Concentrations used in the examples below are of cumic alcohol in a corn oil droplet. The in vitro concentration may not be relevant to in vivo concentration because there is partitioning between oil and culture medium and the medium concentration of the active is not The oil droplet concentration of the active. For the cumic alcohol to elicit its effect on the cultured cells, it must diffuse out of the corn oil into the culture medium where it is then accessible to the cells. The cumic alcohol concentration in the culture medium is therefore considerably less than the concentration in the corn oil droplet.

human keratinocytes [3] = experiment: Lipid analysis (ceramides, TLC densitometry) in keratinocytes
human keratinocytes [4] = experiment: Ascorbate uptake assay (14C-ascorbic acid) in keratinocytes
Experimental: Normal human keratinocytes, isolated from neonatal foreskin by trypsin treatment, were grown in Dulbecco's Modified Eagles Medium (DMEM, Life Technologies. Grand Island, New York) with 10% fetal bovine serum in the 10 presence of irradiated mouse fibroblasts for establishing dividing keratinocyte colonies. Cells were incubated until their second passage and stored at -70 ° C. for future use. All incubations took place at 37 ° C. with 5% CO2. Frozen second passage keratinocytes were thawed and plated in T-175 flasks (Corning. Corning, N.Y.) with DMEM and grown for five days. After reaching 80% confluence, they were trypsinized and seeded into 6-well plates containing keratinocyte growth medium (KGM, Clonetics, San Diego, Calif.) with 0.15 mM calcium. For this experiment, third passage keratinocytes were plated into a KGM medium (Clonetics, Calif.) containing 0.15 mM calcium. […] Cells were then switched into fresh KBM and were treated with 5% cumic alcohol administered in corn oil (dosed 10 μl corn oil+active at indicated concentration/2 ml media). After 4 hours of incubation, 0.1 μCi/ml of L-^14C-1-ascorbic acid (Amersham, UK) and 50 units of ascorbic oxidase (Sigma) were added to each well and further incubated for 1 hour. The medium was aspirated and wells were rinsed 3 times with PBS before addition of 500 μl of 0.1N NaOH/well. After 10 minutes of agitation on shaker, 25 μL aliquot was removed for protein analysis, and 200 μl were transferred to scintillation vials containing 5 ml of […]. The counting was performed on a Beckman counter (model LS 5801). Ascorbic acid uptake results were expressed as CPM /μg protein. Concentrations used in the examples below are of cumic alcohol in a corn oil droplet. The in vitro concentration may not be relevant to in vivo concentration because there is partitioning between oil and culture medium and the medium concentration of the active is not The oil droplet concentration of the active. […]

[5] = Example 2, Experiment 1, cumic alcohol 2.5% in corn oil
[6] = Example 2, Experiment 1, cumic alcohol 5% in corn oil
[7] = Example 2, Experiment 2, cumic alcohol 2.5% in corn oil
[8] = Example 2, cumic alcohol at 2.5 and 5%
[9] = Example 4, inactivity at lower concentrations

CC(C)c1ccc(CO)cc1 [CUMIC ALCOHOL, p-isopropylbenzyl alcohol]
glucose uptake % OF CONTROL (human keratinocytes [1]; cumic alcohol 1% in corn oil droplet): 107% | glucose uptake % OF CONTROL (human keratinocytes [1]; cumic alcohol 2.5% in corn oil droplet): 185% | glucose uptake % OF CONTROL (human keratinocytes [1]; cumic alcohol 5% in corn oil droplet): 206% | glucose uptake CPM/ug PROTEIN (human keratinocytes [1]; cumic alcohol 5% in corn oil droplet (10 ul), 4 h preincubation, 1 h uptake): 40.67 CPM/ug PROTEIN | TG-1 % of CONTROL (human keratinocytes [2]; [5]): 117% | TG-1 % of CONTROL (human keratinocytes [2]; [6]): 180% | TG-1 % of CONTROL (human keratinocytes [2]; [7]): 145% | expression of transglutaminase-1 in comparison to untreated control cells (in words) (human keratinocytes [2]; [8]): increased expression | TG-1 % of CONTROL (human keratinocytes [2]; Example 4, cumic alcohol 1% in corn oil): 127% | TG-1 % of CONTROL (human keratinocytes [2]; Example 4, cumic alcohol 2.5% in corn oil): 174% | TG-1 % of CONTROL (human keratinocytes [2]; Example 4, cumic alcohol 5% in corn oil): 205% | transglutaminase-1 expression (in words) (human keratinocytes [2]; [9]): significant increase | ceramides % of CONTROL (human keratinocytes [3]; [5]): 67% | ceramides % of CONTROL (human keratinocytes [3]; [6]): 156% | ceramides % of CONTROL (human keratinocytes [3]; [7]): 166% | ceramides % of CONTROL (human keratinocytes [3]; Example 2, Experiment 2, cumic alcohol 5% in corn oil): 185% | expression of ceramides in comparison to untreated control cells (in words) (human keratinocytes [3]; [8]): increased expression | ceramide production (in words) (human keratinocytes [3]; [9]): significant increase | ascorbate uptake % of CONTROL (human keratinocytes [4]; cumic alcohol 5% in corn oil): 129% | ascorbate uptake CPM/WELL (human keratinocytes [4]; cumic alcohol 5% in corn oil (10 ul/2 ml media), 4 h preincubation, 1 h uptake): 17235 +− CPM/WELL | uptake of ascorbate in comparison to untreated control cells (in words) (human keratinocytes [4]; cumic alcohol at 5% in corn oil): significantly increased uptake
